Measurements published in ChEMBL document CHEMBL4616702 (ACS Med Chem Lett, 2020).

Assays:
[1] = Fraction unbound in human plasma; assay type: ADME, cell-free
Cytochrome P450 2C9 = Cytochrome P450 2C9 (Homo sapiens, UniProt P11712); assay: Inhibition of recombinant CYP2C9 (unknown origin); assay type: ADME
[2] = Clearance in mouse at 2 mg/kg, iv; assay type: ADME, organism-based; conditions: in vivo
[3] = Cmax in dog at 1 mg/kg, po; assay type: ADME, organism-based, Canis lupus familiaris; parameters: dose 1 mg/kg, route oral; conditions: in vivo
[4] = Fraction unbound in mouse plasma; assay type: ADME, cell-free
Cytochrome P450 2C8 = target: T1, Cytochrome P450 2C8 (Homo sapiens, UniProt P10632); assay: Inhibition of recombinant CYP2C8 (unknown origin); assay type: ADME
T1 sequence (P10632 whole entry): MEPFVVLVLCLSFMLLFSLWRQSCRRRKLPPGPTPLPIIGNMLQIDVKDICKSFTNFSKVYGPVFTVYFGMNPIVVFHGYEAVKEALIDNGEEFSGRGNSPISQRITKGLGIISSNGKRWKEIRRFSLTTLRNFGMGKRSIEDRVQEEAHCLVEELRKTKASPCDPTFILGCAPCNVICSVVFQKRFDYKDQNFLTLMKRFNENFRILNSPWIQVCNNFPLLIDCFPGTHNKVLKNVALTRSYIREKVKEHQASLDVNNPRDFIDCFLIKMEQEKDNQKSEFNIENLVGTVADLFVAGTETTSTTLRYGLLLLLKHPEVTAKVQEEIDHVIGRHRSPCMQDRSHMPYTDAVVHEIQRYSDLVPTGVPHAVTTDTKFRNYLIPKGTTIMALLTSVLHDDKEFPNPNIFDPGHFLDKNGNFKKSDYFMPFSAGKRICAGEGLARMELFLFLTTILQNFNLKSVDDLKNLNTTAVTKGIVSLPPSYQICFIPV

[5] = Clearance in rat at 2 mg/kg, iv; assay type: ADME, organism-based; conditions: in vivo
[6] = AUC (0 to 24 hrs) in dog at 1 mg/kg, po; assay type: ADME, organism-based, Canis lupus familiaris; parameters: time < 24 hr, dose 1 mg/kg, route oral; conditions: in vivo
[7] = Half life in rat liver microsomes in presence of NADPH by LC/MS/MS metho; assay type: ADME, Microsome; conditions: liver microsomes
[8] = Oral bioavailability in cynomolgus monkey at 1 mg/kg; assay type: ADME, organism-based, Macaca fascicularis; conditions: in vivo
[9] = Clearance in cynomolgus monkey at 1 mg/kg, iv; assay type: ADME, organism-based, Macaca fascicularis; conditions: in vivo
[10] = Cmax in cynomolgus monkey at 1 mg/kg, po; assay type: ADME, organism-based, Macaca fascicularis; parameters: dose 1 mg/kg, route oral; conditions: in vivo
[11] = Half life in dog at 1 mg/kg, iv; assay type: ADME, organism-based, Canis lupus familiaris; conditions: in vivo
[12] = Half life in cynomolgus monkey at 1 mg/kg, iv; assay type: ADME, organism-based, Macaca fascicularis; conditions: in vivo
[13] = AUC (0 to 24 hrs) in cynomolgus monkey at 1 mg/kg, po; assay type: ADME, organism-based, Macaca fascicularis; parameters: dose 1 mg/kg, time < 24 hr, route oral; conditions: in vivo
[14] = Oral bioavailability in dog at 1 mg/kg; assay type: ADME, organism-based, Canis lupus familiaris; conditions: in vivo
[15] = target: T2, Nuclear receptor subfamily 1 group I member 2 (Homo sapiens, UniProt O75469); assay: Inverse agonist activity at PXR (unknown origin)
T2 sequence (O75469 whole entry): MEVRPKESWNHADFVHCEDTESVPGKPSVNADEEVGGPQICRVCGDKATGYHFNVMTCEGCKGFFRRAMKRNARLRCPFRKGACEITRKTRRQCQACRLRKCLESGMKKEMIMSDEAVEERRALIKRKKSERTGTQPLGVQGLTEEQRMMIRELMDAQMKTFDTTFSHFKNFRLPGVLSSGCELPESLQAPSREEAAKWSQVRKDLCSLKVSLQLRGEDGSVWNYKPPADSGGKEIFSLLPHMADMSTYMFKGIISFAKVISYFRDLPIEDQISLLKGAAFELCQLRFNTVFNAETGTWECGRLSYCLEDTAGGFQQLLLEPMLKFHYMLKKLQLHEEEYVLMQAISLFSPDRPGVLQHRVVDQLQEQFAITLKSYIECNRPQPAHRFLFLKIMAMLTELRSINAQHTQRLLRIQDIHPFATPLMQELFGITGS

[16] = Volume of distribution in steady state in cynomolgus monkey at 1 mg/kg, iv; assay type: ADME, organism-based, Macaca fascicularis; conditions: in vivo, read-out: Vdss
[17] = Drug concentration in Balb/c mouse at 10 mg/kg, po measured upto 24 hrs; assay type: ADME, organism-based; conditions: in vivo, read-out: Drug uptake
[18] = AUC (0 to 24 hrs) in mouse at 4 mg/kg, po; assay type: ADME, organism-based; parameters: dose 4 mg/kg, time < 24 hr, route oral; conditions: in vivo
[19] = AUC (0 to 24 hrs) in Balb/c mouse at 10 mg/kg, po; assay type: ADME, organism-based; parameters: dose 10 mg/kg, time < 24 hr, route oral; conditions: in vivo
Cytochrome P450 1A2 = target: T3, Cytochrome P450 1A2 (Homo sapiens, UniProt P05177); assay: Inhibition of recombinant CYP1A2 (unknown origin); assay type: ADME
T3 sequence (P05177 whole entry): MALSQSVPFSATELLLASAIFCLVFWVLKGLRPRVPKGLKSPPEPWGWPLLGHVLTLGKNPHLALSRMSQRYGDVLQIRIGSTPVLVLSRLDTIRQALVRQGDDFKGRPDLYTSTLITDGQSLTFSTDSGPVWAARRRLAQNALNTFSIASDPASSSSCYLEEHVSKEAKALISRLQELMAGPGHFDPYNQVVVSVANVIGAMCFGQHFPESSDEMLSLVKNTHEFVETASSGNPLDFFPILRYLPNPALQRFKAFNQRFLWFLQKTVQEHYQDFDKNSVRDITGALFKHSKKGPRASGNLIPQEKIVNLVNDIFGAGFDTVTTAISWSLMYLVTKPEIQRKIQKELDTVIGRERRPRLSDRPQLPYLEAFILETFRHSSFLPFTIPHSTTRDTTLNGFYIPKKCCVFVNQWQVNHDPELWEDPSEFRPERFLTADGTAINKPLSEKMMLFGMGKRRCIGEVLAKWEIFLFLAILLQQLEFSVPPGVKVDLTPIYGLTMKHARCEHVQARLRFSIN

[20] = Clearance in dog at 1 mg/kg, iv; assay type: ADME, organism-based, Canis lupus familiaris; conditions: in vivo
Cytochrome P450 2D6 = Cytochrome P450 2D6 (Homo sapiens, UniProt P10635); assay: Inhibition of recombinant CYP2D6 (unknown origin); assay type: ADME
Chain of Cytochrome P450 2D6 (P10635 whole entry): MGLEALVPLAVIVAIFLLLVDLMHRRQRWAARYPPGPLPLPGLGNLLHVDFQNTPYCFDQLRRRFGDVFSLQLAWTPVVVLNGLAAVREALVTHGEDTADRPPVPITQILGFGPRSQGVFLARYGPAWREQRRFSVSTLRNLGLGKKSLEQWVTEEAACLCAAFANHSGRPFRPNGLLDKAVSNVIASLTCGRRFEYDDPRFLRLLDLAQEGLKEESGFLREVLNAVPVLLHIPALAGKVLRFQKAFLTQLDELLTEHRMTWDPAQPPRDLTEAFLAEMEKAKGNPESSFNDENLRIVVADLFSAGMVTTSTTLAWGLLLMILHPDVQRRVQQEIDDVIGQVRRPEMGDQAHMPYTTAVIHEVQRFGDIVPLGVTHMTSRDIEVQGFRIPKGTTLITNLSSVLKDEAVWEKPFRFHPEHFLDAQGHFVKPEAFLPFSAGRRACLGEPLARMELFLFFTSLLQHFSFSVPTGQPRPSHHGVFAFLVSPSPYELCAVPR

[21] = target: T4, Nuclear receptor ROR-gamma (Mus musculus, UniProt P51450); assay: Inverse agonist activity at RORgammat in mouse whole blood assessed as suppression of […] secretion; assay type: tissue-based
T4 sequence (P51450 whole entry): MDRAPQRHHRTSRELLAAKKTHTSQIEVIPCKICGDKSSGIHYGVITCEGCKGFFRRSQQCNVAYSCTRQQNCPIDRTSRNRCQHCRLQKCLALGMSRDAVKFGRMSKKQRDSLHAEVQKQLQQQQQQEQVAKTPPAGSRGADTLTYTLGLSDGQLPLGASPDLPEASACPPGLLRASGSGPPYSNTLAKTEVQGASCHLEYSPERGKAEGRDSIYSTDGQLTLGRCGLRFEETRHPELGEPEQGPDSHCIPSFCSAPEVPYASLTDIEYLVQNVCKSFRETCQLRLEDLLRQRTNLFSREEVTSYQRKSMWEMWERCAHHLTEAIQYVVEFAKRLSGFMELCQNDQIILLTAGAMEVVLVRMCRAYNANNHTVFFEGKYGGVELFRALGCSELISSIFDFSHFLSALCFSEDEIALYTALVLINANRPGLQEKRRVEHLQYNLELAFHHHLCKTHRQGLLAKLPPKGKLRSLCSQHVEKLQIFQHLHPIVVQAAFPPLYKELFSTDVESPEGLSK

[22] = Cmax in rat at 4 mg/kg, po; assay type: ADME, organism-based; parameters: dose 4 mg/kg, route oral; conditions: in vivo
[23] = Fraction unbound in rat plasma; assay type: ADME, cell-free

Chain of Cytochrome P450 2C9 (P11712 whole entry): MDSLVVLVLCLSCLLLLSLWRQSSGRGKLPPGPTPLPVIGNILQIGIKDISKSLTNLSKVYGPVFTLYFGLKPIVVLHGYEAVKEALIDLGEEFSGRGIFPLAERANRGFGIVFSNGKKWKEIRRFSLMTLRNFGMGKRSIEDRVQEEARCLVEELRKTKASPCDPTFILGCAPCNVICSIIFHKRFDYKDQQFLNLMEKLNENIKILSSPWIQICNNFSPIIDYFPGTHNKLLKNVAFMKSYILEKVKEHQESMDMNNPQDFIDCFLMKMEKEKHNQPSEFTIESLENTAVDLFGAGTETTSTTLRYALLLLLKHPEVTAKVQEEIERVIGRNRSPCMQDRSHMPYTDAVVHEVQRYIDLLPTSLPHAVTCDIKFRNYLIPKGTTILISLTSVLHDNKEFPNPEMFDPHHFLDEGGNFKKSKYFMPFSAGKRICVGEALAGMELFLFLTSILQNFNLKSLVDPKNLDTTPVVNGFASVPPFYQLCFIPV

Question: With `C[C@H]1C[C@H](C(=O)O)CC[C@H]1C(=O)N1CC[C@@]2(S(=O)(=O)c3ccc(F)cc3)c3ccc(C(F)(C(F)(F)F)C(F)(F)F)cc3CC[C@@H]12` [BMS-986251] as the compound, how does the fraction unbound [1] read?
Answer: Its fraction unbound is 0.012.

Question: And the IC50 (Cytochrome P450 2C9)?
Answer: The IC50 was over 20 µM.

Question: What about the clearance [2] of the same compound?
Answer: Its clearance is 2.7 mL/min/kg.

Question: What about the Cmax [3] of the same compound?
Answer: The Cmax was 6.4 µM.

Question: What about the fraction unbound [4] of the same compound?
Answer: The fraction unbound was 0.016.

Question: And the IC50 (Cytochrome P450 2C8)?
Answer: Its IC50 is 16 µM.

Question: And the clearance [5]?
Answer: The clearance was 1.3 mL/min/kg.

Question: What about the AUC(0-t) at 24 h [6] of the same compound?
Answer: The AUC(0-t) at 24 h was 120 µM·h.

Question: And the half-life [7]?
Answer: The half-life was over 2 h.

Question: What about the bioavailability [8] of the same compound?
Answer: Its bioavailability is 100%.

Question: What about the clearance [9] of the same compound?
Answer: The clearance was 1.1 mL/min/kg.

Question: And the Cmax [10]?
Answer: Its Cmax is 3.1 µM.

Question: What about the half-life [11] of the same compound?
Answer: Its half-life is 36 h.

Question: What about the half-life [12] of the same compound?
Answer: The half-life was 33 h.

Question: And the AUC(0-t) at 24 h [13]?
Answer: Its AUC(0-t) at 24 h is 35 µM·h.

Question: What about the bioavailability [14] of the same compound?
Answer: The bioavailability was 100%.

Question: What about the EC50 [15] of the same compound?
Answer: Its EC50 is over 5 µM.

Question: And the Vd [16]?
Answer: The Vd was 2 L/kg.

Question: What about the concentration at 24 h [17] of the same compound?
Answer: The concentration at 24 h was 0.52 µM.

Question: And the AUC(0-t) at 24 h [18]?
Answer: Its AUC(0-t) at 24 h is 37 µM·h.

Question: And the AUC(0-t) at 24 h [19]?
Answer: The AUC(0-t) at 24 h was 68 µM·h.

Question: What about the IC50 (Cytochrome P450 1A2) of the same compound?
Answer: The IC50 was over 20 µM.

Question: And the clearance [20]?
Answer: Its clearance is 0.18 mL/min/kg.

Question: What about the IC50 (Cytochrome P450 2D6) of the same compound?
Answer: Its IC50 is over 20 µM.

Question: What about the EC50 [21] of the same compound?
Answer: Its EC50 is 0.011 µM.

Question: And the Cmax [22]?
Answer: Its Cmax is 4.7 µM.

Question: And the fraction unbound [23]?
Answer: Its fraction unbound is 0.021.
